Reference: patent US9309247B2, “2-substituted imidazo[4,5-D]phenanthroline derivatives and their use in the treatment of cancer” (Aptose Biosciences Inc., priority 2013, dated 2016)

Tests used:
[1] = test system: human colon carcinoma cells KM12; assay: XTT cell proliferation assay, KM12; type: cell-based; conditions: 5 days incubation, read-out: Antiproliferative activity, Colon KM12
Procedure: (§1) Exemplary compounds 1-8 were tested for anti-cancer activity in vitro using human renal cancer cells (ACHN and CAK-1), human pancreatic cells (BXPC3 and SU-86-86), human prostate cancer cell (DU14), human colon carcinoma cells (HT-29 and KM-12), leukemia cells (HL60), brain cancer/tumour cells (SK-A-AS, U87-MG), and human non-small cell lung cancer cells (H460). Compounds 1-8 are the specific embodiments of Formula (I) and Formula (IV) as described above in this application.
(§2) The cells were maintained as a monolayer in a growth medium; McCoy's 5A modified medium (Sigma, St. Louis, Mo.), supplemented with 2 mM L-glutamine (Gibco, Grand Island, N.Y.), 10% fetal bovine serum (FBS) (Multicell, WISENT Inc. St-Bruno, QC), antibiotic-antimycotic (Multicell), at 37° C. in a 5% CO2-humidified incubator. Cells were transferred onto 150 mm tissue culture plates and grown until sub-confluency (70-80%) prior to their use. The in vitro antiproliferative activity of compounds was evaluated by incubating the cells with varying concentrations of exemplary compounds as shown in Table 1 for 5 days. The efficacy of these compounds in this cell proliferation assay was measured based in the ability of live cells to reduce the tetrazolium salt XTT to orange colored compounds of formazan (XTT cell proliferation kit IT, Roche Applied Science, Montreal, QC).

[2] = test system: human colon carcinoma cells HT-29; assay: XTT cell proliferation assay, HT-29; type: cell-based; conditions: 5 days incubation, read-out: Antiproliferative activity, Colon HT-29
Procedure: as §1, §2

[3] = test system: brain cancer/tumour cells SK-N-AS; assay: XTT cell proliferation assay, SK-N-AS; type: cell-based, human; conditions: 5 days incubation, read-out: Antiproliferative activity, Brain SK-N-AS
Procedure: as §1, §2

[4] = test system: brain cancer/tumour cells U87-MG; assay: XTT cell proliferation assay, U87-MG; type: cell-based, human; conditions: 5 days incubation, read-out: Antiproliferative activity, Brain U87-MG
Procedure: as §1, §2

[5] = test system: non-small cell lung cancer cells H226; assay: XTT cell proliferation assay, H226; type: cell-based, human; conditions: 5 days incubation, read-out: Antiproliferative activity, NSCLC H226
Procedure: [The procedure below names another cell line; the source lists this cell line under the same test.] as §1, §2

[6] = test system: non-small cell lung cancer cells EKVX; assay: XTT cell proliferation assay, EKVX; type: cell-based, human; conditions: 5 days incubation, read-out: Antiproliferative activity, NSCLC EKVX
Procedure: [The procedure below names another cell line; the source lists this cell line under the same test.] as §1, §2

P388D1 (mouse, lymphoma) = assay: Cell growth inhibition assay, P388D1; type: cell-based; conditions: five days of incubation, XTT; read-out: IC50 P388D1 (ms)
Procedure: (§3) In this study, compounds 1-8 were screened in vitro against a panel of four mouse lymphoma cell lines and two human lymphoma cell line for cell growth inhibition activity. Following treatment, half maximal inhibitory concentrations (IC50) were determined with the objective of selecting the most efficacious compounds for evaluation of in vitro absorption, distribution, metabolism, and excretion (ADME) screening.
(§4) Similarly, human Burkitt's lymphoma Ramos cells (ATCC CRL-1596) were grown in suspension in Roswell Park Memorial Institute (RPMI) 1640 medium supplemented with 10% fetal bovine serum (FBS), 10 mM HEPES KOH pH 7.4, and 2 mM sodium pyruvate. Mouse P388D1 (ATCC CCL-46) and WR19L (ATCC TIB-52) cells were grown in suspension in Dulbecco's Modified Eagle Medium (DMEM) with 10% fetal bovine serum (FBS), 10 mM HEPES, and 2 mM sodium pyruvate. Mouse WEHI231 (ATCC CRL-1702) and EL4 (ATCC TIB-39) cells were grown in suspension in DMEM with 10% fetal bovine serum (FBS), 10 mM HEPES KOH pH 7.4, 2 mM sodium pyruvate, and 0.05 mM β-mercaptoethanol. All cells were maintained at 37° C. in an atmosphere of 5% CO2 in air. Logarithmically growing cells were routinely sub-cultured twice weekly. Briefly, cells were collected by centrifugation, resuspended in pre-warmed media, and diluted 1:10 into a 75 cm^2 flask.
(§5) Cells were subcultured and 4×10^3 cells (in 50 μL) were transferred to each well in a Falcon 96-well tissue culture plate. Exemplary compounds were dissolved in pure dimethyl sulphoxide (DMSO) at a concentration of 10 mM. From this 10 mM stock solution, 12 successive serial dilutions were made in DMSO (2.5 fold dilutions), ranging from 0.52 μM to 10 mM. Using these stock dilutions, 5 μL of each were added to 500 μL of media, and 50 μL of this was added to the cells. The final concentrations being tested ranged from 0.0026 μM to 50 μM. Each concentration was tested in triplicate, and DMSO and untreated cells were also included as controls. After five days of incubation with the compounds, cell viability was determined using the XTT cell proliferation kit (Roche, Cat. No. 11 465 015 001). Following the XTT protocol, 4.5-24 hours after addition of the reagent, the plates were read in a μQuant 96-well plate spectrophotometer (Biotek Instruments Inc.) and the results analyzed to determine the IC50.

[7] = test system: WEHI 231 (mouse, B-cell lymphoma); assay: Cell growth inhibition assay, WEHI231; type: cell-based; conditions: five days of incubation, XTT; read-out: IC50 WEHI231 (ms)
Procedure: as §3, §4, §5

WR19L (mouse, lymphoma) = assay: Cell growth inhibition assay, WR19L; type: cell-based; conditions: five days of incubation, XTT; read-out: IC50 WR19L (ms)
Procedure: as §3, §4, §5

[8] = test system: colon carcinoma KM-12 cells; assay: Colon carcinoma (KM-12) xenograft model; type: in vivo, CD-1 female nude mice; conditions: vs vehicle-treated control, FIG. 2
Procedure: (§6) The ability of compound 1 to inhibit colon tumour growth in vivo was tested as follows. CD-1 female nude mice (7 mice per treatment group, 6-7 weeks) were injected […] with human colon adenocarcinoma cells HT-29 cells (3×10^6 cells in 0.1 ml PBS). Treatment of the mice with vehicle or 50 mg/kg/d of […] was initiated 5 days post-inoculation (size of tumours=20-40 mm^3) for 7-day cycles of five days followed by a 2 day break for 5 weeks. The size of the tumours was measured over the course of the experiment using calipers, and the weight of the tumours was measured after the animals were sacrificed.
Similar tests were conducted with colon carcinoma KM-12 cells and colon carcinoma SW-620 cells.

[9] = test system: renal cell carcinoma (ACHN); assay: Renal cell carcinoma (ACHN) xenograft model; type: in vivo, CD-1 female nude mice; conditions: vs vehicle-treated control, FIG. 4
Procedure: as §6
The ability of compound 1 to inhibit renal cell carcinoma growth (see FIG. 4), to inhibit pancreatic carcinoma growth (FIG. 5), to inhibit large-cell lung carcinoma cell growth (FIG. 6), and to inhibit Glioblastoma cell growth (FIG. 7) was also tested following the general procedure as discussed above.

IC50 [1]: 330 nM
IC50 [2]: 350 nM
IC50 [3]: 210 nM
IC50 [4]: 190 nM
IC50 [5]: 410 nM
IC50 [6]: 220 nM
IC50 (P388D1 (mouse, lymphoma)): 370 nM
IC50 [7]: 5.2 nM
IC50 (WR19L (mouse, lymphoma)): 82 nM
SMILES: FC1(F)Oc2ccc(-c3nc4c5cccnc5c5ncccc5c4[nH]3)cc2O1 [Compound 1]
inhibition of tumour growth, as measured by tumour size [8]: able to inhibit tumour growth
inhibition of tumour growth, as measured by tumour size [9]: able to inhibit tumour growth
